Experimental data taken from article PMC6941357, “An in vitro toolbox to accelerate anti-malarial drug discovery and development” (Malaria Journal, 2020).
Several values for one entry are separate records, joined by “and”; a condition that tells them apart may be missing. Equal values may be shown once. Read-outs that look alike come from different tables or passages of the source. Marks after values point to notes of the source that are not given here.

Key:
[1] = Ionization constants by potentiometric titration; format: physicochemical; details: mean ± SD, n = 3 titrations
Method: The autotitrator was controlled by Tiamo software (Version 1.3). pH measurements were conducted using a Metrohm LL Micro glass electrode which was calibrated on the day of use with calibration standards at pH 2, 4, 7 and 10. All reagents were standardized (directly or indirectly) against potassium hydrogen phthalate (Sigma-Aldrich, A.C.S. Acidimetric Standard). Titrant solutions were protected from carbon dioxide absorption by flushing with nitrogen before sealing or by the incorporation of a drying tube filled with self-indicating soda lime into the titration reaction vessel set-up.
Aliquots were introduced directly into the titration vessel and diluted 1:10 with water (typical final compound concentration of 0.5 mM).

human plasma [2] = experiment: Plasma protein binding via rapid equilibrium dialysis (RED), 10% plasma; format: in vitro ADME; details: RED, 10% plasma corrected for dilution
Outline: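 Fraction unbound in undiluted plasma was derived from mean total and unbound levels measured in 10% plasma. That plasma was pooled from 3–4 donors, diluted in pH 7.4 phosphate/0.04 M NaCl buffer, spiked at ~1000–3000 ng/mL and equilibrium-dialysed at 37 °C in pre-saturated RED devices, n = 3–4.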

[3] = Blood to plasma partitioning; format: in vitro ADME, human; details: human whole blood, 37 °C
Method: Human whole blood was collected and supplied by the Volunteer Blood Donor Registry (Clinical Translation Centre, Walter & Eliza Hall Institute of Medical Research, Parkville, Australia) and used on the day of collection. The haematocrit (Hct) was determined by centrifugation (13,000×g for 3 min using Clemets® Microhaematocrit centrifuge and Safecap® Plain Self-sealing Mylar wrapped capillary tubes) to ensure it was between 0.40 and 0.48. An aliquot was centrifuged (Heraeus, Multifuge 3 S-R; 4500×g) for 10 min to obtain plasma required for matrix matching purposes as described below.
Two aliquots of the spiked whole blood were transferred to fresh microcentrifuge tubes and maintained at 37 °C/5% CO2 in a humidified incubator. The pH was confirmed to be 7.4 ± 0.1 at the start and end of the incubation. At each time point (30 min and 4 h), one whole blood tube was removed from the incubator and mixed by gentle inversion, after which four replicate blood samples were taken and matrix matched with an equal volume of blank plasma. The remainder of the blood sample was centrifuged (Eppendorf, Mini Spin plus; 6700×g) for 2 min for the collection of 4 replicate plasma samples which were similarly matrix matched with an equal volume of blank whole blood. The 1:1 mixtures of blood/plasma were mixed, snap frozen in dry ice and stored at − 80 °C until analysis by LC–MS (Additional file 1: Table S2) against calibration standards prepared in the same mixed matrix. Any further distribution of compound into RBCs at this stage was irrelevant as the cells were lysed during the sample preparation and the total concentration in the mixed matrix was measured for both the calibration standards and samples.
The apparent whole blood-to-plasma partitioning ratio (B/P) was calculated as the ratio of the average concentration in the blood sample to that in the plasma fraction of the same whole blood sample. A standard deviation (SD) for each B/P value was calculated using the propagation of errors approach as described previously.

human liver microsomes = experiment: in vitro; details: for HLM CLint: human, microsomes
Outline: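 Intrinsic clearance (µL/min/mg protein) came from the first-order substrate-depletion rate in human liver microsomes, using only the initial log-linear phase where kinetics deviated. Samples were quenched at 2, 5, 15, 30 and 60 min and quantified by LC–MS. Unbound CLint was obtained by dividing by microsomal fu.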

Caco-2 cell monolayers [4] = details: cited from earlier work
Caco-2 cell monolayers [5] = experiment: Bidirectional permeability across Caco-2 cell monolayers; details: for efflux ratio: mean B–A/A–B Papp
Outline: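 Donor and acceptor concentrations measured by LC–MS to give Papp, mass balance and efflux ratio (mean B–A over A–B Papp). Media were pH 7.4 HEPES-buffered HBSS or human plasma on both sides; for plasma, Papp used the donor fraction unbound. Donor contained 0.1% v/v DMSO.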

human plasma [6] = details: methods UF, ED, EP or not described per compound, ref [6]–[22] of Additional file 1; cited from earlier work
[7] = matrix: pH 7.4 buffer, ref 31 (quinine), 78 (DSM421)
[8] = matrix: human plasma, corrected for fu
[9] = presaturation of device and 24 h dialysis

Row | Compound | Fraction unbound, human plasma (human plasma [2]; 6 h dialysis) | B/P (whole blood to plasma partitioning ratio) [3] | Unbound CLint (human liver microsomes) | HLM CLint (human liver microsomes) | Literature fu (human plasma [6]) | A–B Papp (Caco-2 cell monolayers [5]; [8]) | B–A Papp (Caco-2 cell monolayers [5]; [8]) | Fraction unbound, human plasma (human plasma [2]; [9]) | also measured
1 | Cc1cc(Nc2ccc(C(F)(F)F)nc2)n2nc(C(C)(F)F)nc2n1 [DSM421] | 0.035 (0.0044) | 0.53 ± 0.03 | < 9.09^c µL/min/mg | < 7^b µL/min/mg |  |  |  |  | Measured pKa ([1]; basic pKa (B)): no ionizations could be detected; A–B Papp (Caco-2 cell monolayers [4]; [7]): 33 ± 2.5 10^−6 cm/s; B–A Papp (Caco-2 cell monolayers [4]; [7]): 46 10^−6 cm/s; efflux ratio (Caco-2 cell monolayers [4]; [7]): 1.4
2 | CC[C@H]1OC(=O)[C@H](C)[C@@H](O[C@H]2C[C@@](C)(OC)[C@@H](O)[C@H](C)O2)[C@H](C)[C@@H](O[C@@H]2O[C@H](C)C[C@H](N(C)C)[C@H]2O)[C@](C)(O)C[C@@H](C)CN(C)[C@H](C)[C@@H](O)[C@]1(C)O [Azithromycin] | 0.35 |  |  |  | 0.5-0.88 |  |  |  | A–B Papp (Caco-2 cell monolayers [5]; matrix: pH 7.4 buffer): 0.37 10^−6 cm/s and 0.38 10^−6 cm/s; A–B Papp (Caco-2 cell monolayers [5]; matrix: pH 7.4 buffer, listed as azithromycin): < 5 10^−6 cm/s
3 | CS(=O)(=O)O.FC1CCN(CCOc2ccc(C3CCC4(CC3)OOC3(OO4)C4CC5CC(C4)CC3C5)cc2)CC1 (stereo not shown) [TDD-E209] | < 0.0001 | 0.51 ± 0.08 | 85,000 µL/min/mg |  |  | > 300 10^−6 cm/s | > 300 10^−6 cm/s | < 0.0001^c | 
4 | COc1cc2[nH]c(C)c(-c3ccc(Oc4ccc(OC(F)(F)F)cc4)cc3)c(=O)c2cc1Cl [ELQ300] | < 0.0001 | 0.53 ± 0.05 | < 3500^c µL/min/mg | < 7^b µL/min/mg |  | > 300 10^−6 cm/s | > 300 10^−6 cm/s | 0.00010 ± 0.000010^c | 
5 | COc1cc(N[C@H](C)CCCN)c2nccc(C)c2c1Oc1ccc(Cl)c(Cl)c1 [NPC1161B] | < 0.0003 | 1.09 ± 0.07 |  | < 7^b µL/min/mg |  | > 300 10^−6 cm/s | > 300 10^−6 cm/s | 0.00074 ± 0.00016^c | 
6 | CC(C)(C)NCc1cc(C(C)(C)C)cc(-c2cnc(C(F)(F)F)c(F)c2)c1O [JPC3210] | 0.0011 (0.0002) | 0.54 ± 0.04 | 328 µL/min/mg | 9.50 µL/min/mg | 0.024 | > 300 10^−6 cm/s | > 300 10^−6 cm/s |  | Measured pKa ([1]; acidic pKa (A)): 5.3 ± 0.04 (A)
7 | CC(C)(C)NCc1cc(Nc2ccnc3cc(Cl)ccc23)c2c(c1O)CCCC2 [Naphthoquine] | 0.019 (0.0010) | 1.14 ± 0.10 | 68.6 µL/min/mg | 14.4 µL/min/mg |  |  |  | 0.018 ± 0.0010^c | Literature ER (Caco-2 cell monolayers [4]; Caco-2, ref [33], [35] of Additional file 1): 0.8; Literature Papp (Caco-2 cell monolayers [4]; Caco-2 A-B, ref [33]–[35] of Additional file 1): 27.3 ± 0.6 10-6 cm/sec; A–B Papp (Caco-2 cell monolayers [4]; [8]): 230 ± 32 10^−6 cm/s; B–A Papp (Caco-2 cell monolayers [4]; [8]): 180 ± 10 10^−6 cm/s; efflux ratio (Caco-2 cell monolayers [4]; matrix: human plasma): 0.8 and 0.78
8 | O=C(NCCN1CCCC1)c1cc(-c2ccc(CN3CCOCC3)cc2)nc2ccc(F)cc12 [M5717] | 0.24 ± 0.0020^b | 1.3 ± 0.02 | 22.2 µL/min/mg | 11.1 µL/min/mg | 0.23 |  |  |  | A–B Papp (Caco-2 cell monolayers [5]; matrix: pH 7.4 buffer): 34 ± 2.6 10^−6 cm/s; B–A Papp (Caco-2 cell monolayers [5]; matrix: pH 7.4 buffer): 39 ± 7.6 10^−6 cm/s; efflux ratio (Caco-2 cell monolayers [5]; matrix: pH 7.4 buffer): 1.1
9 | CN(C)C[c-]1cccc1CNc1ccnc2cc(Cl)ccc12.[Fe+2].c1cc[cH-]c1 (stereo not shown) [Ferroquine] |  | 1.6 ± 0.15 | 108 µL/min/mg | 29.2 µL/min/mg |  | 32 ± 6.8 10^−6 cm/s | 24 ± 4.1 10^−6 cm/s | 0.041 ± 0.0010^c | efflux ratio (Caco-2 cell monolayers [5]; matrix: human plasma): 0.8
